# Measured values: the Kinase Knowledgebase extract (Sharma et al. 2016)
# Biological target: PIK3CG (human) (UniProt P48736)
# Assay: Inhibition of PIK3CG Kinase Activity
# Sequence of PIK3CG (human) (P48736 whole entry, looked up): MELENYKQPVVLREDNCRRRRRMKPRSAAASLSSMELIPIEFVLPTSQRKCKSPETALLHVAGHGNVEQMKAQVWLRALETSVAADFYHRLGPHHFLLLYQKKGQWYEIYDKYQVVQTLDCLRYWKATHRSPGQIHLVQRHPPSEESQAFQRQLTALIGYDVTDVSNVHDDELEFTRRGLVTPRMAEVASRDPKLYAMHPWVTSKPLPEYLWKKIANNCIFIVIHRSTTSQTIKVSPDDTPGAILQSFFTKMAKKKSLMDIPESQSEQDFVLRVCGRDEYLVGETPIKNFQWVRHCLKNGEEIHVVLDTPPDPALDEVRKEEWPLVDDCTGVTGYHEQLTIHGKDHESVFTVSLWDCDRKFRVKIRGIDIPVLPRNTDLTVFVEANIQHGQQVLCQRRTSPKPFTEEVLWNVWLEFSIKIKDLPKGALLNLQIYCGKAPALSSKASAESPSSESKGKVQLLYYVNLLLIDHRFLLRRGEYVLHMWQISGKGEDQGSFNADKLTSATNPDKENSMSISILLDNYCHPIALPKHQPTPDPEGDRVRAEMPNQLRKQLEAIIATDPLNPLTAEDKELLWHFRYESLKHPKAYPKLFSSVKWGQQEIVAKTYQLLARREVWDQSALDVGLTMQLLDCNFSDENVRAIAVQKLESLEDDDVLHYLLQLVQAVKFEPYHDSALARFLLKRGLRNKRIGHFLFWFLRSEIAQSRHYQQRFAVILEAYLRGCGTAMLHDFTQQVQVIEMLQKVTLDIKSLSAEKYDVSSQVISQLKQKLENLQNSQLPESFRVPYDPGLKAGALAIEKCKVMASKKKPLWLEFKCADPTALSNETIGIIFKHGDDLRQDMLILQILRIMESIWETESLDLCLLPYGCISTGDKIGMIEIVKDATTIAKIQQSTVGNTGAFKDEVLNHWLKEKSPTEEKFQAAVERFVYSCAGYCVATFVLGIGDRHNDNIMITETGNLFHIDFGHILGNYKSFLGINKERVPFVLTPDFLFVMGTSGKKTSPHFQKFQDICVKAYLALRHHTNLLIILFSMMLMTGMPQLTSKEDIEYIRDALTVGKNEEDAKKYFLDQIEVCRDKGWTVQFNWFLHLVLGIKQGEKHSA
row,SMILES,Ki
1,CNC(=O)c1cc(-c2cc(C)c3c(n2)C(C)(C)N(c2cnn(CC(F)(F)F)c2)C3=O)cnc1OC,100 to 490 nM
2,Cc1cc(-c2cncc(CO)c2)nc2c1C(=O)N(c1cc[nH]n1)C2,100 to 490 nM
3,CCOc1cncc(-c2cc(C)c3c(n2)C(C)(C)N(c2cnn(COCCOC)c2)C3=O)c1,100 to 490 nM
4,COc1cc(-c2ccc3c(n2)CN(c2ccnc(N(C)CCCN(C)C)c2)C3=O)cnc1OC,100 to 490 nM
5,COc1cc(-c2ccc3c(n2)CN(c2cnn(CCn4ccc(C)n4)c2)C3=O)cnc1OC,100 to 490 nM
6,COc1cc(-c2cc(C)c3c(n2)CN(c2ncccn2)C3=O)cnc1OC,100 to 490 nM
7,Cc1cc(-c2cncc(C(=O)NC3CC3)c2)nc2c1C(=O)N(c1cnn(CC(F)(F)F)c1)C2(C)C,100 to 490 nM
8,COc1cc(-c2ccc3c(n2)C(C)N(c2cccc(C(O)C(F)(F)F)n2)C3=O)cnc1OC (stereo not drawn),< 100 nM
9,COc1cncc(-c2cc(C)c3c(n2)C2(CCC2)N(c2cnn(CC(F)(F)F)c2)C3=O)c1,< 100 nM
10,Cc1cc(-c2cncc(CO)c2)cc2c1C(=O)N(c1cnn(CC(F)(F)F)c1)C2C (stereo not drawn),< 100 nM
11,CCOc1ncc(-c2ccc3c(n2)CN(c2cnn(CC#N)c2)C3=O)cc1OC,< 100 nM
12,COc1cc(-c2ccc3c(c2)CN(c2csc(C)c2)C3=O)cnc1OC,100 to 490 nM
13,Cc1cc(-c2cnc(C)c(C(=O)NC(C)C)c2)nc2c1C(=O)N(c1cnn(CC(F)(F)F)c1)C2(C)C,< 100 nM
14,Cc1ccc(-c2cc(C)c3c(n2)CN(c2cnn(CC#N)c2)C3=O)cn1,< 100 nM
15,Cc1cc(-c2cncc(NC(=O)C(C)(C)C)c2)nc2c1C(=O)N(c1cnn(CC(F)(F)F)c1)C2(C)C,100 to 490 nM
16,COc1cc(-c2ccc3c(n2)[C@H](C)N(c2ccn(C[C@@H](C)O)n2)C3=O)cnc1OC,< 100 nM
17,COc1cc(-c2cc(C)c3c(n2)CN(c2ccc(C)s2)C3=O)cnc1OC,< 100 nM
18,COc1cc(-c2ccc3c(n2)CN(c2cnn(Cc4ccncc4)c2)C3=O)cnc1OC,< 100 nM
19,COc1cc(-c2cc(C)c3c(n2)CN(c2cc(C)n(CCC4OCCCO4)n2)C3=O)cnc1OC,< 100 nM
20,CCn1cc(N2Cc3nc(-c4cccc(OC)c4)cc(C)c3C2=O)cn1,< 100 nM

row,SMILES,Ki
1,COc1ncc(-c2cc(C)c3c(n2)CN(c2cnn(CC(F)(F)F)c2)C3=O)cc1O,< 100 nM
2,CCOc1ncc(-c2cc(C)c3c(n2)C2(CCCO2)N(c2cnn(CC(F)(F)F)c2)C3=O)cc1OC (stereo not drawn),< 100 nM
3,COc1cc(-c2ccc3c(n2)CN(c2ccn(C[C@H](C)O)n2)C3=O)cnc1OC,< 100 nM
4,Cc1cc(-c2cncc(OCC(F)F)c2)nc2c1C(=O)N(c1cnn(CC(F)(F)F)c1)C2C (stereo not drawn),< 100 nM
5,CCOc1ccnc(N2Cc3nc(-c4cnc(OC)c(OC)c4)cc(C)c3C2=O)c1,< 100 nM
6,COc1cc(-c2cc(C)c3c(n2)C(C)N(c2cnn(C[C@H](C)O)c2)C3=O)cnc1OC (stereo partly drawn),< 100 nM
7,CCOc1cncc(-c2cc(C)c3c(n2)[C@H](OC)N(c2cnn(CC(F)(F)F)c2)C3=O)c1,< 100 nM
8,Cc1cc(-c2cncc(OC(F)F)c2)nc2c1C(=O)N(c1cnn(CC(F)(F)F)c1)C21CC1,< 100 nM
9,Cc1cc(-c2cncc(OC(F)F)c2)nc2c1C(=O)N(c1cnn(CC(F)F)c1)C2,< 100 nM
10,CCO[C@@H]1c2nc(-c3cnc(OC)c(OC)c3)cc(C)c2C(=O)N1c1cnn(CC(F)(F)F)c1,< 100 nM
11,COCCCOc1cc(-c2cc(C)c3c(n2)CN(c2cnn(CC(F)(F)F)c2)C3=O)cnc1OC,< 100 nM
12,CON=Cc1cncc(-c2cc(C)c3c(n2)C(C)(C)N(c2cnn(CC(F)(F)F)c2)C3=O)c1,< 100 nM
13,COc1cc(-c2cc(C)c3c(n2)[C@@]2(CCCO2)N(c2cnn(CC(F)(F)F)c2)C3=O)cnc1OC(C)C,< 100 nM
14,Cc1cc(-c2cncc(OCC(F)F)c2)nc2c1C(=O)N(c1cnn(CC(F)(F)F)c1)C2,< 100 nM
15,COc1cc(-c2ccc3c(n2)CN(c2ccc(=O)n(CC4COCCO4)c2)C3=O)cnc1OC (stereo not drawn),< 100 nM
16,Cc1cc(-c2cncc(OCC(F)F)c2)nc2c1C(=O)N(c1cnn(CC(F)F)c1)C2(C)C,< 100 nM
17,COc1cc(-c2cc(OC)c3c(n2)CN(c2cnn(CC(F)(F)F)c2)C3=O)cnc1OC,< 100 nM
18,COC(=O)CC1c2nc(-c3cnc(OC)c(OC)c3)ccc2C(=O)N1c1cnn(CC(F)(F)F)c1 (stereo not drawn),< 100 nM
19,COc1cc(-c2ccc3c(n2)[C@H](C)N(c2cc[nH]n2)C3=O)cnc1OC,< 100 nM

# The next lines start with the values.
row,Ki,SMILES
1,< 100 nM,CCn1cc(N2C(=O)c3c(C)cc(-c4cncc(OC(F)F)c4)nc3[C@H]2C)cn1
2,< 100 nM,COc1cc(-c2ccc3c(n2)CN(c2ccc(N4CCN(C)CC4)nc2)C3=O)cnc1OC
3,< 100 nM,CCn1cc(N2Cc3nc(-c4cnc(OC)c(OC)c4)cc(C)c3C2=O)cn1
4,< 100 nM,COc1cc(-c2ccc3c(n2)C(C)N(c2cnn(CC#N)c2)C3=O)cnc1OC (stereo not drawn)
5,< 100 nM,COc1cc(-c2cc(C)c3c(n2)CN(c2ccnc(C#N)c2)C3=O)cnc1OC
6,< 100 nM,Cc1cncc(-c2cc(C)c3c(n2)CN(c2cnn(CC#N)c2)C3=O)c1
7,< 100 nM,Cc1cc(-c2cncc(OC(F)F)c2)nc2c1C(=O)N(c1cnn(C)c1)C2C (stereo not drawn)
8,< 100 nM,COc1cc(OC)cc(-c2cc(C)c3c(n2)[C@H](C)N(c2cnn(CC(F)(F)F)c2)C3=O)c1
9,< 100 nM,COc1cc(-c2cc(C)c3c(n2)CN(c2ccn([C@@H]4CCOC4)n2)C3=O)cnc1F
10,< 100 nM,COc1cncc(-c2cc(C)c3c(n2)[C@H](OC)N(c2cnn(CC(F)(F)F)c2)C3=O)c1
11,< 100 nM,Cc1cc(-c2ccc(F)c(O)c2)nc2c1C(=O)N(c1cnn(CC(F)(F)F)c1)C2
12,< 100 nM,CCn1cc(N2Cc3nc(-c4cnc(OC)c(OC(C)C)c4)cc(C)c3C2=O)cn1
13,< 100 nM,COc1cc(-c2ccc3c(n2)CN(c2cnn(C(C)(C)C#N)c2)C3=O)cnc1OC
14,< 100 nM,Cc1cc(-c2cnc(C)c(OCC(F)F)c2)nc2c1C(=O)N(c1cnn(CC(F)F)c1)C2C (stereo not drawn)
15,< 100 nM,COc1cc(-c2cc(C)c3c(n2)C(O)N(c2cnn(CC(F)(F)F)c2)C3=O)cnc1OC (stereo not drawn)
16,< 100 nM,C=C(F)Cn1cc(N2C(=O)c3c(C)cc(-c4cncc(OC)c4)nc3C2(C)C)cn1
17,< 100 nM,COc1cc(-c2ccc3c(n2)C(C)N(c2ccn(C)n2)C3=O)cnc1OC (stereo not drawn)
18,< 100 nM,COc1cncc(-c2cc(C)c3c(n2)CN(c2ccn(C[C@@H](C)F)n2)C3=O)c1
19,< 100 nM,COc1cc(-c2cc(C)c3c(n2)[C@H](C)N(c2cnn(C[C@@H](C)O)c2)C3=O)cnc1OC
20,< 100 nM,COc1cc(-c2ccc3c(n2)CN(c2cnn(C(C)C)c2)C3=O)cnc1OC
21,< 100 nM,COc1cncc(-c2cc(C)c3c(n2)C(C)N(c2cnn(CC(F)(F)F)c2)C3=O)c1 (stereo not drawn)
22,< 100 nM,COc1cncc(-c2cc(C)c3c(n2)C(C)(C)N(c2cnn(CC(F)F)c2)C3=O)c1
23,< 100 nM,COc1cc(-c2ccc3c(n2)CN(c2ccn(C[C@@H](C)O)n2)C3=O)cnc1OC
24,< 100 nM,COc1cncc(N2Cc3nc(-c4cnc(OC)c(OC)c4)cc(C)c3C2=O)c1
25,< 100 nM,Cc1cc(-c2cncc(C(=O)NC(C)C)c2)nc2c1C(=O)N(c1cnn(CC(F)(F)F)c1)C2C (stereo not drawn)
26,< 100 nM,COc1cc(-c2ccc3c(n2)CN(c2cnn(C(C)(C)C#N)c2)C3=O)cnc1OC(F)F
27,< 100 nM,COc1cc(-c2ccc3c(n2)CN(c2ccc(=O)n(CC#N)c2)C3=O)cnc1OC
28,< 100 nM,COc1cc(-c2ccc3c(n2)C(C)N(c2cccc(C(C)(C)C#N)n2)C3=O)cnc1OC (stereo not drawn)
29,< 100 nM,Cc1cc(-c2cncc(NS(=O)(=O)N(C)C)c2)nc2c1C(=O)N(c1cnn(CC(F)(F)F)c1)C2(C)C
